Columns and labels:
Format in all cases: in vivo, human
[1] = Plasma pharmacokinetics, non-compartmental analysis; conditions: for Vd/F / half-life / Tmax / AUC(0-t) / AUC / Cmax: human, plasma, oral; for Vd/F: Vss/F, Amean (range); for AUC(0-t): AUC0–12, Gmean (range)
[2] = tested on: pAKT, p4E-BP1 and pS6 in tumour biopsies; test: Immunohistochemistry of paired pre- and post-dose tumour biopsies; conditions: two patients with baseline and post-dose tumour sample
[3] = Urine pharmacokinetics after single dose; conditions: for CL renal: human, urine, oral, CLR, Amean (n) (range); for fe (0–24), dose fraction excreted unchanged in the urine, Amean (n) (range): zero to 24 h post dose
[4] = 60 mg, single dose, 60 mg tablet (n=7)
[5] = 90 mg, single dose, 90 mg tablet (n=11)
[6] = 120 mg, single dose, 120 mg tablet (n=10)

## COc1ccc(-c2ccc3c(N4CCOC[C@@H]4C)nc(N4CCOC[C@@H]4C)nc3n2)cc1CO [AZD8055]
[1]; 40 mg, single dose, 40 mg tablet (n=7)
  Vd/F: 762 L
[1]; 40 mg, t1/2, Amean (range), single dose, 40 mg solution (n=6)
  half-life: 159 min
[1]; 40 mg, t1/2, Amean (range), single dose, 40 mg tablet (n=7)
  half-life: 137 min
[1]; 40 mg, t1/2 ss, Amean (n) (range), following BID dosing, 40 mg BID solution
  half-life: 128 min
[1]; 40 mg, t1/2 ss, Amean (n) (range), following BID dosing, 40 mg BID tablet
  half-life: 182 min
[1]; 40 mg, tmax ss, Median (n) (range), following BID dosing, 40 mg BID solution
  Tmax: 15 min
[1]; 40 mg, tmax ss, Median (n) (range), following BID dosing, 40 mg BID tablet
  Tmax: 60 min
[1]; 40 mg, tmax, Median (range), single dose, 40 mg solution (n=6)
  Tmax: 22.2 min
[1]; 40 mg, tmax, Median (range), single dose, 40 mg tablet (n=7)
  Tmax: 60 min
[1]; [4]
  AUC(0-t): 131 ng·h/mL
  Vd/F: 1770 L
[1]; 60 mg, AUC, Gmean (range), single dose, 60 mg tablet (n=7)
  AUC: 136 ng·h/mL
[1]; 60 mg, AUCss, Gmean (n) (range), following BID dosing, 60 mg BID tablet
  AUC: 178 ng·h/mL
[1]; 60 mg, Cmax ss, Gmean (n) (range), following BID dosing, 60 mg BID tablet
  Cmax: 82.8 ng/mL
[1]; 60 mg, Cmax, Gmean (range), single dose, 60 mg tablet (n=7)
  Cmax: 57.1 ng/mL
[1]; 60 mg, t1/2, Amean (range), single dose, 60 mg tablet (n=7)
  half-life: 142 min
[1]; 60 mg, t1/2 ss, Amean (n) (range), following BID dosing, 60 mg BID tablet
  half-life: 169 min
[1]; 60 mg, tmax ss, Median (n) (range), following BID dosing, 60 mg BID tablet
  Tmax: 60 min
[1]; 60 mg, tmax, Median (range), single dose, 60 mg tablet (n=7)
  Tmax: 30 min
[1]; 90 mg
  Cmax: 70.1 ng/mL
  half-life: 142 min
[1]; [5]
  AUC(0-t): 130 ng·h/mL
  Vd/F: 2450 L
[1]; 90 mg, AUC, Gmean (range), single dose, 90 mg tablet (n=11)
  AUC: 134 ng·h/mL
[1]; 90 mg, AUCss, Gmean (n) (range), following BID dosing, 90 mg BID tablet
  AUC: 122 ng·h/mL
[1]; 90 mg, Cmax ss, Gmean (n) (range), following BID dosing, 90 mg BID tablet
  Cmax: 70 ng/mL
[1]; 90 mg, t1/2 ss, Amean (n) (range), following BID dosing, 90 mg BID tablet
  half-life: 158 min
[1]; 90 mg, tmax ss, Median (n) (range), following BID dosing, 90 mg BID tablet
  Tmax: 30 min
[1]; 90 mg, tmax, Median (range), single dose, 90 mg tablet (n=11), MTD
  Tmax: 30 min
[1]; [6]
  AUC(0-t): 280 ng·h/mL
  Vd/F: 1370 L
[1]; 120 mg, AUC, Gmean (range), single dose, 120 mg tablet (n=10)
  AUC: 294 ng·h/mL
[1]; 120 mg, AUCss, Gmean (n) (range), following BID dosing, 120 mg BID tablet
  AUC: 501 ng·h/mL
[1]; 120 mg, Cmax ss, Gmean (n) (range), following BID dosing, 120 mg BID tablet
  Cmax: 355 ng/mL
[1]; 120 mg, Cmax, Gmean (range), single dose, 120 mg tablet (n=10)
  Cmax: 177 ng/mL
[1]; 120 mg, t1/2, Amean (range), single dose, 120 mg tablet (n=10)
  half-life: 188 min
[1]; 120 mg, t1/2 ss, Amean (n) (range), following BID dosing, 120 mg BID tablet
  half-life: 147 min
[1]; 120 mg, tmax ss, Median (n) (range), following BID dosing, 120 mg BID tablet
  Tmax: 30 min
[1]; 120 mg, tmax, Median (range), single dose, 120 mg tablet (n=10)
  Tmax: 30 min
[1]; mean t1/2, single and multiple doses across all cohorts
  half-life: 102 to 186 min
[1]; median tmax, single and multiple doses across all cohorts
  Tmax: ~30 min
[1]; oral dosing in patients
  Oral bioavailability: orally bioavailable
[1]; single dose, 90 mg tablet (n=11), MTD
  tmax, Median (range): 1.00 (0.25–4) h
[1]; single dosing, all cohorts
  Dose proportionality of exposure: proportional increases in exposure with increasing dose
[2]
  Biomarker modulation for pAKT, p4E-BP1 and pS6 in tumour samples: did not show conclusive evidence of biomarker modulation
[3]; all dose levels, first 24 h following the single dose
  Dose excreted unchanged in the urine: < 0.25%
[3]; 10 mg, single dose, 10 mg solution
  CL renal: 1.95 mL/min
[3]; 20 mg, single dose, 20 mg solution
  CL renal: 1.29 mL/min
[3]; 40 mg, single dose, 40 mg solution
  CL renal: 1.78 mL/min
[3]; 40 mg, single dose, 40 mg tablet
  CL renal: 3.68 mL/min
[3]; 60 mg, single dose, 60 mg tablet
  CL renal: 2.67 mL/min
[3]; 90 mg, single dose, 90 mg tablet
  CL renal: 1.75 mL/min
[3]; 120 mg, single dose, 120 mg tablet
  CL renal: 1.68 mL/min
[3]; single dose
  Renal clearance: low renal clearance
[3]; single dose, 10 mg solution
  fe (0–24), dose fraction excreted unchanged in the urine, Amean (n) (range): 0.0248 (4) (0.0121–0.0438) %
[3]; single dose, 20 mg solution
  fe (0–24), dose fraction excreted unchanged in the urine, Amean (n) (range): 0.0114 (3) (0.00512–0.0207) %
[3]; single dose, 40 mg solution
  fe (0–24), dose fraction excreted unchanged in the urine, Amean (n) (range): 0.0227 (5) (0.00907–0.0423) %
[3]; single dose, 40 mg tablet
  fe (0–24), dose fraction excreted unchanged in the urine, Amean (n) (range): 0.0881 (6) (0.0043–0.224) %
[3]; single dose, 60 mg tablet
  fe (0–24), dose fraction excreted unchanged in the urine, Amean (n) (range): 0.0222 (7) (0.00289–0.0712) %
[3]; single dose, 90 mg tablet
  fe (0–24), dose fraction excreted unchanged in the urine, Amean (n) (range): 0.0231 (9) (0.00155–0.0704) %
[3]; single dose, 120 mg tablet
  fe (0–24), dose fraction excreted unchanged in the urine, Amean (n) (range): 0.0375 (7) (0.00237–0.151) %
